Source: patent publication US20220386606A1, “SPECIFICALLY SUBSTITUTED 3-PHENYL-5-SPIROCYCLOPENTYL-3-PYRROLIN-2-ONES AND THEIR USE AS HERBICIDES” (Bayer Aktiengesellschaft, priority 2019, published 2022)

How the values were obtained:
[1] = system: SETVI; assay: Pre-emergence herbicidal action against SETVI; format: in vivo, Setaria viridis; settings: 320 g/ha, scored visually after 3 weeks vs untreated controls
How it was run: (§1)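 Visual percent damage, rated 3 weeks after treatment against untreated plants (0% like control, 100% plants dead). Compounds, as wettable powders or emulsion concentrates, were sprayed pre-emergence onto soil covering seeds sown in sandy loam, at 600 to 800 L/ha water with 0.2% wetting agent; pots kept in greenhouse.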

[2] = system: SETVI; assay: Post-emergence herbicidal action against SETVI; format: in vivo, Setaria viridis; settings: 80 g/ha, visual assessment about 3 weeks after treatment vs untreated controls
How it was run: (§2)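 Greenhouse post-emergence test; one-leaf stage (2–3 wk post-sowing), sandy loam. Spray: WP/EC in water, 600–800 l/ha, 0.2% wetting agent, onto green parts. Visual rating ~3 wk later, % vs untreated (100% = dead, 0% = like control).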

[3] = system: DIGSA; assay: Pre-emergence herbicidal action against DIGSA; format: in vivo, Digitaria sanguinalis; settings: 320 g/ha, scored visually after 3 weeks vs untreated controls
How it was run: as §1

[4] = system: VIOTR; assay: Pre-emergence herbicidal action against VIOTR; format: in vivo, Viola tricolor; settings: 320 g/ha
How it was run: as §1

[5] = system: ABUTH; assay: Post-emergence herbicidal action against ABUTH; format: in vivo, Abutylon threophrasti; settings: 80 g/ha, visual assessment about 3 weeks after treatment vs untreated controls
How it was run: as §2

[6] = system: ALOMY; assay: Post-emergence herbicidal action against ALOMY; format: in vivo, Alopecurus myosuroides; settings: 80 g/ha, visual assessment after about 3 weeks
How it was run: as §2

[7] = system: ALOMY; assay: Pre-emergence herbicidal action against ALOMY; format: in vivo, Alopecurus myosuroides; settings: 320 g/ha, scored visually after 3 weeks vs untreated controls
How it was run: as §1

[8] = system: ECHCG; assay: Pre-emergence herbicidal action against ECHCG; format: in vivo, Echinochloa crus-galli; settings: 320 g/ha, scored visually after 3 weeks vs untreated controls
How it was run: as §1

[9] = system: AVEFA; assay: Post-emergence herbicidal action against AVEFA; format: in vivo, Avena fatua; settings: 80 g/ha, visual assessment after about 3 weeks
How it was run: as §2

[10] = system: AVEFA; assay: Pre-emergence herbicidal action against AVEFA; format: in vivo, Avena fatua; settings: 320 g/ha, scored visually after 3 weeks vs untreated controls
How it was run: as §1

[11] = system: LOLRI; assay: Post-emergence herbicidal action against LOLRI; format: in vivo, Lolium rigidum; settings: 80 g/ha, visual assessment about 3 weeks after treatment vs untreated controls
How it was run: as §2

[12] = system: POLCO; assay: Pre-emergence herbicidal action against POLCO; format: in vivo, Polygonum convolvulus; settings: 320 g/ha
How it was run: as §1

[13] = system: LOLRI; assay: Pre-emergence herbicidal action against LOLRI (Table 8, titled post-emergence at 320 g/ha); format: in vivo, Lolium rigidum; settings: table stands in the pre-emergence section
How it was run: as §1

[14] = system: ABUTH; assay: Pre-emergence herbicidal action against ABUTH; format: in vivo, Abutylon threophrasti; settings: 320 g/ha
Excerpt: Seeds of monocotyledonous and dicotyledonous weed plants and crop plants are laid out in sandy loam soil in wood-fiber pots and covered with soil. The compounds of the invention, formulated in the form of wettable powders (WP) or as emulsion concentrates (EC), are then applied to the surface of the covering soil as aqueous suspension or emulsion at a water application rate equating to 600 to 800 L/ha with addition of 0.2% wetting agent.
After the treatment, the pots are placed in a greenhouse and kept under good growth conditions for the trial plants. The damage to the test plants is scored visually after a test period of 3 weeks by comparison with untreated controls (herbicidal activity in percent (%): 100% activity=the plants have died, 0% activity=like control plants).

[15] = system: AMARE; assay: Pre-emergence herbicidal action against AMARE; format: in vivo, Amaranthus retroflexus; settings: 320 g/ha
How it was run: as §1

[16] = system: DIGSA; assay: Post-emergence herbicidal action against DIGSA; format: in vivo, Digitaria sanguinalis; settings: 80 g/ha, visual assessment about 3 weeks after treatment vs untreated controls
How it was run: as §2

[17] = system: ECHCG; assay: Post-emergence herbicidal action against ECHCG; format: in vivo, Echinochloa crus-galli; settings: 80 g/ha, visual assessment about 3 weeks after treatment vs untreated controls
How it was run: as §2

[18] = system: VIOTR; assay: Post-emergence herbicidal action against VIOTR; format: in vivo, Viola tricolor; settings: 80 g/ha, visual assessment about 3 weeks after treatment vs untreated controls
Experimental: Seeds of monocotyledonous and dicotyledonous weed and crop plants are laid out in sandy loam soil in wood-fiber pots, covered with soil and cultivated in a greenhouse under good growth conditions. 2 to 3 weeks after sowing, the test plants are treated at the one-leaf stage. The compounds of the invention, formulated in the form of wettable powders (WP) or as emulsion concentrates (EC), are then sprayed onto the green parts of the plants as aqueous suspension or emulsion at a water application rate equating to 600 to 800 l/ha with addition of 0.2% wetting agent. After the test plants have been left to stand in the greenhouse under optimal growth conditions for about 3 weeks, the action of the preparations is assessed visually in comparison to untreated controls (herbicidal action in percent (%): 100% activity=the plants have died, 0% activity=like control plants).

[19] = system: MATIN; assay: Pre-emergence herbicidal action against MATIN; format: in vivo; settings: 320 g/ha
How it was run: as §1

[20] = system: VERPE; assay: Pre-emergence herbicidal action against VERPE; format: in vivo, Veronica persica; settings: 320 g/ha
How it was run: as §1

Structure (SMILES) | Pre-emergence action against SETVI in % [1] | Post-emergence action against SETVI in % [2] | Pre-emergence action against DIGSA in % [3] | Pre-emergence action against VIOTR in % [4] | Post-emergence action against ABUTH in % [5] | Post-emergence action against ALOMY in % [6] | Pre-emergence action against ALOMY in % [7] | Pre-emergence action against ECHCG in % [8] | Post-emergence action against AVEFA in % [9] | Pre-emergence action against AVEFA in % [10] | Post-emergence action against LOLRI in % [11] | Pre-emergence action against POLCO in % [12] | Pre-emergence herbicidal action against LOLRI in % [13] | Pre-emergence action against ABUTH in % [14] | Pre-emergence action against AMARE in % [15] | Post-emergence action against DIGSA in % [16] | Post-emergence action against ECHCG in % [17] | Post-emergence action against VIOTR in % [18] | Pre-emergence action against MATIN in % [19] | Pre-emergence action against VERPE in % [20]
CC#Cc1cc(C)c(C2=C(O)C3(CCC(COC)C3)NC2=O)c(Br)c1 (centres unmarked) [Example I-18] | 100% | 100% | 100% | 100% | 80% | 100% | 100% | 100% | 100% | 100% | 100% | 100% | 100% | 80% | 100% | 100% | 100% | – | – | –
C=CCOCC1CCC2(C1)NC(=O)C(c1c(C)cc(C#CC)cc1OC)=C2O (centres unmarked) [Example I-47] | 100% | – | 100% | 100% | – | 100% | 100% | 100% | 90% | 90% | 100% | – | 100% | – | – | – | 100% | 100% | – | –
CC#Cc1cc(Br)c(C2=C(OC(=O)OCC)C3(CCC(COC)C3)NC2=O)c(OC)c1 (centres unmarked) [Example P-08] | 100% | 100% | 100% | 90% | 80% | 100% | 100% | 100% | – | 100% | 100% | 100% | 100% | 80% | – | 100% | 100% | – | 80% | 90%
CC#Cc1cc(C)c(C2=C(OC(=O)C(C)C)C3(CCC(COC)C3)NC2=O)c(Br)c1 (centres unmarked) [Example P-32] | 100% | 100% | 100% | 100% | 90% | 100% | 100% | 100% | 90% | 90% | 100% | 80% | 100% | 80% | 90% | 100% | 100% | – | 80% | 90%
CC#Cc1cc(C)c(C2=C(OC(=O)OCC)C3(CCC(COCC)C3)NC2=O)c(Br)c1 (centres unmarked) [Example P-35] | 100% | 100% | 100% | 100% | – | 100% | 100% | 100% | 80% | 100% | 100% | – | 100% | – | 100% | 100% | 90% | 90% | – | 80%
CC#Cc1cc(C)c(C2=C(OC(=O)OCC)C3(CCC(COCC)C3)NC2=O)c(OC)c1 (centres unmarked) [Example P-49] | 100% | 100% | 100% | 100% | – | 100% | 100% | 100% | 90% | 100% | 100% | – | 100% | – | – | 90% | 100% | 80% | 80% | 80%
C=CCOCC1CCC2(C1)NC(=O)C(c1c(C)cc(C#CC)cc1Cl)=C2OC(=O)OCC (centres unmarked) [Example P-72] | 100% | 100% | 100% | 100% | – | 80% | 90% | 100% | – | – | 80% | 100% | 100% | – | – | 90% | 100% | 90% | – | 80%
CC#Cc1cc(F)c(C2=C(OC(=O)OCC)C3(CCC(COCCC)C3)NC2=O)c(OC)c1 (centres unmarked) [Example P-82] | 100% | 100% | 100% | 90% | – | 100% | 100% | 100% | – | 90% | 100% | 100% | 100% | – | 90% | 90% | 100% | 80% | – | –
CC#Cc1cc(C)c(C2=C(OC(=O)OCC)C3(CCC(COCCC)C3)NC2=O)c(Cl)c1 (centres unmarked) [Example P-87] | 100% | 100% | 100% | 90% | 80% | 90% | 100% | 100% | 80% | 100% | 100% | 80% | 100% | 80% | – | 100% | 100% | – | – | 80%
